Source: patent US9695171B2, “3,4-disubstituted-1 H-pyrrolo[2,3-b]pyridines and 4,5-disubstituted-7H-pyrrolo[2,3-c]pyridazines as LRRK2 inhibitors” (Pfizer Inc., priority 2013, dated 2017)

Each molecule was assayed against T1, GST-tagged truncated LRRK2 (Homo sapiens, UniProt Q5S007) (assay: LRRK2 kinase assay (Lantha Screen)). Conditions: 1 mM ATP (head); a = geometric mean of >=4 determinations, b = single determination; read-out: LRRK2 LANTHA EC50 at 1 mM ATP; Geometric mean of 2-3 determinations unless otherwise indicated.
T1 construct: GST-tagged truncated LRRK2 from Invitrogen (Cat # PV4874); GST; purchased Invitrogen PV4874
T1 sequence (Q5S007 970-2527 limits assumed): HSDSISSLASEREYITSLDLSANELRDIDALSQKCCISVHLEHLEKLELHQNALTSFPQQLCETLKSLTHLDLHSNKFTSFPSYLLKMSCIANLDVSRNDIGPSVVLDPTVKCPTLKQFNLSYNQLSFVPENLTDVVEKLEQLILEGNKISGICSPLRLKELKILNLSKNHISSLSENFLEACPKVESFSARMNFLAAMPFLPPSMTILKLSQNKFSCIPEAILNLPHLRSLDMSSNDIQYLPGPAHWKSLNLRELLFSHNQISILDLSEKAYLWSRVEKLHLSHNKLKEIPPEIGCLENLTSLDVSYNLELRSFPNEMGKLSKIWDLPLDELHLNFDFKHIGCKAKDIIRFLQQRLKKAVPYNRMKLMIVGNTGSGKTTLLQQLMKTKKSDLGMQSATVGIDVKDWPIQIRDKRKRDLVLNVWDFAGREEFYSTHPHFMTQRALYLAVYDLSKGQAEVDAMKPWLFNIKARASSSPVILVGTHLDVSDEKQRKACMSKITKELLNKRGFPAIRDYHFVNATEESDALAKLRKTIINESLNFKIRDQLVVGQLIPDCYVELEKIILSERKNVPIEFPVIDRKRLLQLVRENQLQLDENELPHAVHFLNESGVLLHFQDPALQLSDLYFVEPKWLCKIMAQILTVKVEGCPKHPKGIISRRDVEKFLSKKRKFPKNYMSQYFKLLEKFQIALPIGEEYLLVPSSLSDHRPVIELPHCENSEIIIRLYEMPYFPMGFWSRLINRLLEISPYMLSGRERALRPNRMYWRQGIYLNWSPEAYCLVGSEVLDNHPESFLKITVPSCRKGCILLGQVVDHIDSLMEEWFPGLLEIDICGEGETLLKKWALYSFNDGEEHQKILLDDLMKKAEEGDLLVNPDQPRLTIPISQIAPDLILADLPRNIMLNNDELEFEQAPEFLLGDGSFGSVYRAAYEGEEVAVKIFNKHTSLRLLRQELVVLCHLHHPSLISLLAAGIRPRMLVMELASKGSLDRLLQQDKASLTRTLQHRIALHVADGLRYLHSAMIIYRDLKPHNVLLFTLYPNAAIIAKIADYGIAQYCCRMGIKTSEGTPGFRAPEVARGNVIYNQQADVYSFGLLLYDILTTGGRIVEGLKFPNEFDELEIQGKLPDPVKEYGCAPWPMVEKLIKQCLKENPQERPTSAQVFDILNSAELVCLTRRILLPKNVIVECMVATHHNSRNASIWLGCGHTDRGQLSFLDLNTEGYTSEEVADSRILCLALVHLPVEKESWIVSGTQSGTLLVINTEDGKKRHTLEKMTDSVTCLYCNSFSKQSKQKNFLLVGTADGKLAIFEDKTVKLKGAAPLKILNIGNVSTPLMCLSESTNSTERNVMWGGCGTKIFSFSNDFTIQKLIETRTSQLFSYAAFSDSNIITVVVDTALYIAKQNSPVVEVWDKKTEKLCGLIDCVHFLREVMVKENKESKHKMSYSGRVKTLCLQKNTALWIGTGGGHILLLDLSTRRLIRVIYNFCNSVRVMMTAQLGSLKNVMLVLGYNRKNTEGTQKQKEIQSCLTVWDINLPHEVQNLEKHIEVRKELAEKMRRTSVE
Format: biochemical
Protocol: LRRK2 kinase activity was measured using Lantha Screen technology from Invitrogen. GST-tagged truncated LRRK2 from Invitrogen (Cat # PV4874) was incubated with a fluorescein-labeled peptide substrate based upon ezrin/radixin/moesin (ERM), also known as LRRKtide (Invitrogen cat # PR8976A), in the presence of a dose response of compound. Upon completion, the assay was stopped and detected with a terbium labeled anti-phospho-ERM antibody (Invitrogen, cat # PR8975A). […] The compound dose response was prepared by diluting compound to a top concentration of 3.16 mM in 100% DMSO and serial diluted by half-log in DMSO 11 times. Aliquots (3.5 μL) of the 100% DMSO dose response were mixed with 46.5 μL water then 1 μL of this mixture was added to the 3 μL substrate mix in the 384-well plate. The kinase reaction was started with 3 μL of a working solution of LRRK2 enzyme at a concentration of 4 μg/mL. […] The reaction was allowed to progress at room temperature for two hours and then stopped with the addition of 7 μL of detection buffer (20 mM Tris pH 7.6, 0.01% NP-40, 0.02% NaN3, 6 mM EDTA with 2 nM terbium labeled anti-phospho-ERM). After an incubation of 1 hour at room temperature, the plate was read on an Envision with an excitation wavelength of 340 nm and a reading emission at both 520 nm and 495 nm. The ratio of the 520 nm and 495 nm emission was used to analyze the data.

SMILES | EC50 [nM]
COc1ccc(F)c(F)c1-c1c[nH]c2ncc(C#N)c(C3CC3)c12 [Example 100, 4-cyclopropyl-3-(2,3-difluoro-6-methoxyphenyl)-1H-pyrrolo[2,3-b]pyridine-5-carbonitrile] | 99.2
Fc1cc(F)cc(-c2c[nH]c3nccc(N4CCOCC4)c23)c1 [Example 34, 3-(3,5-difluorophenyl)-4-(morpholin-4-yl)-1H-pyrrolo[2,3-b]pyridine] | 43.3
Cn1cc(-c2c[nH]c3nccc(-c4cc(F)ccc4F)c23)cn1 [Example 95, 4-(2,5-difluorophenyl)-3-(1-methyl-1H-pyrazol-4-yl)-1H-pyrrolo[2,3-b]pyridine] | 49.5
N#Cc1cccc(-c2c[nH]c3nccc(N4CCOCC4)c23)n1 [Example 19, 6-[4-(morpholin-4-yl)-1H-pyrrolo[2,3-b]pyridin-3-yl]pyridine-2-carbonitrile] | 47.5
Cn1cc(-c2c[nH]c3nncc(N4CCOCC4)c23)cc1C#N [Example 6, 1-Methyl-4-[4-(morpholin-4-yl)-7H-pyrrolo[2,3-c]pyridazin-5-yl]-1H-pyrrole-2-carbonitrile] | 14.2
COc1cccc(-c2c[nH]c3nccc(N4CCOCC4)c23)c1 [Example 31, 3-(3-methoxyphenyl)-4-(morpholin-4-yl)-1H-pyrrolo[2,3-b]pyridine] | 124
Cc1[nH]c2nccc(N3CCOCC3)c2c1-c1ccccc1 [Example 53, 2-methyl-4-(morpholin-4-yl)-3-phenyl-1H-pyrrolo[2,3-b]pyridine] | 201
Cn1cc(-c2c[nH]c3nccc(N4CCOCC4)c23)cn1 [Example 13, 3-(1-methyl-1H-pyrazol-4-yl)-4-(morpholin-4-yl)-1H-pyrrolo[2,3-b]pyridine] | 26.5
COc1ccc(F)cc1-c1c[nH]c2nccc(N3CCOCC3)c12 [Example 15, 3-(5-fluoro-2-methoxyphenyl)-4-(morpholin-4-yl)-1H-pyrrolo[2,3-b]pyridine] | 92.3
COc1cc(F)cc(-c2c[nH]c3nccc(N4CCOCC4)c23)c1 [Example 16, 3-(3-fluoro-5-methoxyphenyl)-4-(morpholin-4-yl)-1H-pyrrolo[2,3-b]pyridine] | 44.3
Cn1cc(-c2c[nH]c3nccc(N4CCOCC4)c23)cc1C(N)=O [Example 85, 1-methyl-4-[4-(morpholin-4-yl)-1H-pyrrolo[2,3-b]pyridin-3-yl]-1H-pyrrole-2-carboxamide] | 21.7
Cc1[nH]c2nccc(N3CCOCC3)c2c1-c1ccccc1F [Example 54, 3-(2-fluorophenyl)-2-methyl-4-(morpholin-4-yl)-1H-pyrrolo[2,3-b]pyridine] | 91.6
Cc1cncc(-c2c(C)[nH]c3nccc(N4CCOCC4)c23)c1 [Example 51, 2-methyl-3-(5-methylpyridin-3-yl)-4-(morpholin-4-yl)-1H-pyrrolo[2,3-b]pyridine] | 191
c1cc(N2CCOCC2)c2c(-c3cn[nH]c3)c[nH]c2n1 [Example 68, 4-(morpholin-4-yl)-3-(1H-pyrazol-4-yl)-1H-pyrrolo[2,3-b]pyridine] | 30.5
N#Cc1cccc(-c2c[nH]c3nccc(-c4cccnc4)c23)c1 [Example 93, 3-[4-(pyridin-3-yl)-1H-pyrrolo[2,3-b]pyridin-3-yl]benzonitrile] | 45.6
N#Cc1cccc(-c2c[nH]c3nccc(C4=CCOCC4)c23)c1 [Example 65, 3-[4-(3,6-dihydro-2H-pyran-4-yl)-1H-pyrrolo[2,3-b]pyridin-3-yl]benzonitrile] | 7.17
N#Cc1cccc(-c2c[nH]c3nccc(N4C[C@H]5C[C@@H](C4)O5)c23)c1 [Example 72, 3-[4-(6-oxa-3-azabicyclo[3.1.1]hept-3-yl)-1H-pyrrolo[2,3-b]pyridin-3-yl]benzonitrile] | 68.3
N#Cc1cccc(-c2c[nH]c3ncc(C#N)c(N4CCOCC4)c23)c1 [Example 11, 3-(3-Cyanophenyl)-4-(morpholin-4-yl)-1H-pyrrolo[2,3-b]pyridine-5-carbonitrile] | 24.2

Continued by falling EC50, values first:

EC50 [nM] | SMILES
201 | Cn1cc(-c2c[nH]c3nncc(N4CCOCC4)c23)cn1 [Example 110, 5-(1-methyl-1H-pyrazol-4-yl)-4-(morpholin-4-yl)-7H-pyrrolo[2,3-c]pyridazine]
185 | CN(C)c1ccnc2[nH]cc(-c3cnn(C)c3)c12 [Example 62, N,N-dimethyl-3-(1-methyl-1H-pyrazol-4-yl)-1H-pyrrolo[2,3-b]pyridin-4-amine]
174 | Cc1[nH]c2nccc(N3CCOCC3)c2c1-c1cc(F)cc(C#N)c1 [Example 56, 3-fluoro-5-[2-methyl-4-(morpholin-4-yl)-1H-pyrrolo[2,3-b]pyridin-3-yl]benzonitrile]
169 | Cn1cc(-c2c[nH]c3nccc(-c4ccc5scnc5c4)c23)cn1 [Example 107, 5-[3-(1-methyl-1H-pyrazol-4-yl)-1H-pyrrolo[2,3-b]pyridin-4-yl]-1,3-benzothiazole]
138 | COc1ccc(-c2ccnc3[nH]cc(-c4cnn(C)c4)c23)cc1F [Example 104, 4-(3-fluoro-4-methoxyphenyl)-3-(1-methyl-1H-pyrazol-4-yl)-1H-pyrrolo[2,3-b]pyridine]
99.2 | N#Cc1cccc(-c2c[nH]c3nccc(N4CCCC(F)(F)C4)c23)c1 [Example 79, 3-[4-(3,3-difluoropiperidin-1-yl)-1H-pyrrolo[2,3-b]pyridin-3-yl]benzonitrile]
95.8 | COC1CCCN(c2ccnc3[nH]cc(-c4cccc(C#N)c4)c23)C1 (stereo not shown) [Example 71, 3-[4-(3-methoxypiperidin-1-yl)-1H-pyrrolo[2,3-b]pyridin-3-yl]benzonitrile]
85.9 | COc1cccc(-c2ccnc3[nH]cc(-c4cnn(C)c4)c23)c1F [Example 98, 4-(2-fluoro-3-methoxyphenyl)-3-(1-methyl-1H-pyrazol-4-yl)-1H-pyrrolo[2,3-b]pyridine]
72.5 | OCc1ccc(F)c(-c2c[nH]c3nccc(N4CCOCC4)c23)c1 [Example 29, {4-fluoro-3-[4-(morpholin-4-yl)-1H-pyrrolo[2,3-b]pyridin-3-yl]phenyl}methanol]
69.7 | Fc1cc(F)c(F)c(-c2c[nH]c3nccc(N4CCOCC4)c23)c1 [Example 33, 4-(morpholin-4-yl)-3-(2,3,5-trifluorophenyl)-1H-pyrrolo[2,3-b]pyridine]
49.7 | c1ccc(-c2c[nH]c3nccc(N4CCOCC4)c23)cc1 [Example 36, 4-(morpholin-4-yl)-3-phenyl-1H-pyrrolo[2,3-b]pyridine]
44.4 | N#Cc1cccc(-c2c[nH]c3nccc(N4C[C@@H](F)[C@H](F)C4)c23)c1 [Example 73, 3-{4-[(3R,4R)-3,4-difluoropyrrolidin-1-yl]-1H-pyrrolo[2,3-b]pyridin-3-yl}benzonitrile]
43.7 | N#Cc1cccc(-c2c[nH]c3nncc(N4CCOCC4)c23)c1F [Example 92, 2-fluoro-3-[4-(morpholin-4-yl)-7H-pyrrolo[2,3-c]pyridazin-5-yl]benzonitrile]
42.2 | N#Cc1cccc(-c2c[nH]c3nncc(N4CCOCC4)c23)c1 [Example 90, 3-[4-(morpholin-4-yl)-7H-pyrrolo[2,3-c]pyridazin-5-yl]benzonitrile]
40.7 | Fc1c(Cl)cccc1-c1c[nH]c2nccc(N3CCOCC3)c12 [Example 32, 3-(3-chloro-2-fluorophenyl)-4-(morpholin-4-yl)-1H-pyrrolo[2,3-b]pyridine]
31.9 | Cc1[nH]c2nccc(N3CCOCC3)c2c1-c1cccc(C#N)n1 [Example 43, 6-[2-methyl-4-(morpholin-4-yl)-1H-pyrrolo[2,3-b]pyridin-3-yl]pyridine-2-carbonitrile]
25.9 | CN(C)c1c(C#N)cnc2[nH]cc(-c3cccc(C#N)c3F)c12 [Example 14, 3-(3-cyano-2-fluorophenyl)-4-(dimethylamino)-1H-pyrrolo[2,3-b]pyridine-5-carbonitrile]
22 | COCC1CN(c2ccnc3[nH]cc(-c4cccc(C#N)c4)c23)CCO1 (stereo not shown) [Example 67, 3-{4-[2-(methoxymethyl)morpholin-4-yl]-1H-pyrrolo[2,3-b]pyridin-3-yl}benzonitrile]
14.1 | N#Cc1cccc(-c2c[nH]c3nccc(N4CCCC4)c23)c1 [Example 77, 3-[4-(pyrrolidin-1-yl)-1H-pyrrolo[2,3-b]pyridin-3-yl]benzonitrile]
14 | c1cnn2c(-c3c[nH]c4nccc(N5CCOCC5)c34)cnc2c1 [Example 3, 3-[4-(Morpholin-4-yl)-1H-pyrrolo[2,3-b]pyridin-3-yl]imidazo[1,2-b]pyridazine]
11.1 | O=c1cc(-c2c[nH]c3nccc(N4CCOCC4)c23)cc[nH]1 [Example 81, 4-[4-(morpholin-4-yl)-1H-pyrrolo[2,3-b]pyridin-3-yl]pyridin-2(1H)-one]
5.26 | Cn1cc(-c2c[nH]c3nccc(N4CCOCC4)c23)nc1C#N [Example 5, 1-Methyl-4-[4-(morpholin-4-yl)-1H-pyrrolo[2,3-b]pyridin-3-yl]-1H-imidazole-2-carbonitrile]
